Reference: the supplement of paper PMC9663587

Tests used:
Torin2 = compound: C1=CC(=CC(=C1)N2C(=O)C=CC3=CN=C4C=CC(=CC4=C32)C5=CN=C(C=C5)N)C(F)(F)F [Torin2]
R0-3306 = compound: C1=CC2=C(C=CC(=C2)C=C3C(=O)NC(=NCC4=CC=CS4)S3)N=C1 [R0-3306]
AZD1775 = compound: C=CCn1c(=O)c2cnc(Nc3ccc(N4CCN(C)CC4)cc3)nc2n1-c1cccc(C(C)(C)O)n1 [AZD1775]
[1] = compound: CC(=O)Nc1cccc(-n2c(=O)n(C3CC3)c(=O)c3c(Nc4ccc(I)cc4F)n(C)c(=O)c(C)c32)c1
[2] = compound: CC(=O)c1c(C)c2cnc(Nc3ccc(N4CCNCC4)cn3)nc2n(C2CCCC2)c1=O
Ipatasertib/GDC0068 = compound: CC(C)NC[C@@H](C(=O)N1CCN(c2ncnc3c2[C@H](C)C[C@H]3O)CC1)c1ccc(Cl)cc1 [Ipatasertib/GDC0068]
BVD523 = compound: CC(C)Nc1cc(-c2c[nH]c(C(=O)N[C@H](CO)c3cccc(Cl)c3)c2)c(Cl)cn1 [BVD523]
SHP099 = compound: CC1(CCN(CC1)C2=CN=C(C(=N2)N)C3=C(C(=CC=C3)Cl)Cl)N [SHP099]
TGX221 = compound: CC1=CN2C(=O)C=C(N=C2C(=C1)C(C)NC3=CC=CC=C3)N4CCOCC4 [TGX221]
[3] = compound: CCC1=CN=CN=C1N2CCN(CC2)CC3=NC4=C(N3)C=C(C=C4)C(F)(F)F
[4] = compound: CCCCOc1c(C(=O)c2c(F)cc(C)cc2F)c[nH]c2nncc1-2
Luminespib/NVP-AUY922 = compound: CCNC(=O)c1noc(-c2cc(C(C)C)c(O)cc2O)c1-c1ccc(CN2CCOCC2)cc1 [Luminespib/NVP-AUY922]
[5] = compound: CCc1cnn2c(NCc3ccc[n+]([O-])c3)cc(N3CCCC[C@H]3CCO)nc12
THZ-P1-2 = compound: CN(C)C/C=C/C(=O)NC1=CC=C(C=C1)C(=O)NC2=CC=CC(=C2)NC3=NC=NC(=C3)C4=CNC5=CC=CC=C54 [THZ-P1-2]
THZ1 = compound: CN(C)C/C=C/C(=O)Nc1ccc(C(=O)Nc2cccc(Nc3ncc(Cl)c(-c4c[nH]c5ccccc45)n3)c2)cc1 [THZ1]
BSJ-01-175 = compound: CN(C)C/C=C/C(=O)Nc1ccc(O[C@@H]2CCC[C@@H](Nc3ncc(Cl)c(-c4c[nH]c5ccccc45)n3)C2)cc1 [BSJ-01-175]
senexin b = compound: CN1CCN(C(=O)c2ccc3cc(CCNc4ncnc5ccc(C#N)cc45)ccc3c2)CC1 [senexin b]
Saracatinib/AZD0530 = compound: CN1CCN(CCOc2cc(OC3CCOCC3)c3c(Nc4c(Cl)ccc5c4OCO5)ncnc3c2)CC1 [Saracatinib/AZD0530]
Flavopiridol = compound: CN1CC[C@H](c2c(O)cc(O)c3c(=O)cc(-c4ccccc4Cl)oc23)[C@H](O)C1 [Flavopiridol]
Rucaparib = compound: CNCc1ccc(-c2[nH]c3cc(F)cc4c3c2CCNC4=O)cc1 [Rucaparib]
[6] = compound: CNc1nc(-c2ccc3c(N)n[nH]c3c2)cc(N2C[C@@H](C(=O)NC3CCCCC3)CC[C@H]2C)n1
Cediranib/AZD2171 = compound: COc1cc2c(Oc3ccc4[nH]c(C)cc4c3F)ncnc2cc1OCCCN1CCCC1 [Cediranib/AZD2171]
Cabozantinib = compound: COc1cc2nccc(Oc3ccc(NC(=O)C4(C(=O)Nc5ccc(F)cc5)CC4)cc3)c2cc1OC [Cabozantinib]
Doxorubicin = compound: COc1cccc2c1C(=O)c1c(O)c3c(c(O)c1C2=O)C[C@@](O)(C(=O)CO)C[C@@H]3O[C@H]1C[C@H](N)[C@H](O)[C@H](C)O1 [Doxorubicin]
AZD6738 = compound: C[C@@H]1COCCN1c1cc(C2([S@](C)(=N)=O)CC2)nc(-c2cc[nH]c3nccc2-3)n1 [AZD6738]
Alpelisib/BYL719 = compound: Cc1nc(NC(=O)N2CCC[C@H]2C(N)=O)sc1-c1ccnc(C(C)(C)C(F)(F)F)c1 [Alpelisib/BYL719]
Dasatinib = compound: Cc1nc(Nc2ncc(C(=O)Nc3c(C)cccc3Cl)s2)cc(N2CCN(CCO)CC2)n1 [Dasatinib]
[7] = compound: Cc1nn(C)c(COc2ccc(N3CCN(S(=O)(=O)N(C)C)CC3)cc2)c1-c1cccc2c(CCCOc3cccc4ccccc34)c(C(=O)O)n(CCN3CCOCC3)c12
AZD7762 = compound: NC(=O)Nc1cc(-c2cccc(F)c2)sc1C(=O)N[C@H]1CCCNC1 [AZD7762]
AZD5363 = compound: NC1(C(=O)N[C@@H](CCO)c2ccc(Cl)cc2)CCN(c2nc[nH]c3nccc2-3)CC1 [AZD5363]
Buparlisib/NVP-BKM120 = compound: Nc1cc(C(F)(F)F)c(-c2cc(N3CCOCC3)nc(N3CCOCC3)n2)cn1 [Buparlisib/NVP-BKM120]
Vorinostat = compound: O=C(CCCCCCC(=O)Nc1ccccc1)NO [Vorinostat]
Olaparib/AZD2281 = compound: O=C(c1cc(Cc2n[nH]c(=O)c3ccccc23)ccc1F)N1CCN(C(=O)C2CC2)CC1 [Olaparib/AZD2281]
AZD2014 = compound: CNC(=O)c1cccc(-c2ccc3c(N4CCOC[C@@H]4C)nc(N4CCOC[C@@H]4C)nc3n2)c1 [AZD2014]
[8] = compound: CO[C@@H](C)Cn1c(=O)n(C)c2cnc3ccc(-c4cncc(C(C)(C)O)c4)cc3c21
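Further: breast cancer and non-malignant breast epithelial cell lines, Deep Dye Drop or Dye Drop imaging, nine half-log doses, GR normalized to time-zero plates and DMSO-only controls.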

Cell Line	GR50, 72 h (Torin2) [µM]	GR50, 72 h (R0-3306) [µM]	GR50, 72 h (AZD1775) [µM]	GR50, 72 h [1] [µM]	GR50, 72 h [2] [µM]	GR50, 72 h (Ipatasertib/GDC0068) [µM]	GR50, 72 h (BVD523) [µM]	GR50, 72 h (SHP099) [µM]	GR50, 72 h (TGX221) [µM]	GR50, 72 h [3] [µM]	GR50, 72 h [4] [µM]	GR50, 72 h (Luminespib/NVP-AUY922) [µM]	GR50, 72 h [5] [µM]	GR50, 72 h (THZ-P1-2) [µM]	GR50, 72 h (THZ1) [µM]	GR50, 72 h (BSJ-01-175) [µM]	GR50, 72 h (senexin b) [µM]	GR50, 72 h (Saracatinib/AZD0530) [µM]	GR50, 72 h (Flavopiridol) [µM]	GR50, 72 h (Rucaparib) [µM]	GR50, 72 h [6] [µM]	GR50, 72 h (Cediranib/AZD2171) [µM]	GR50, 72 h (Cabozantinib) [µM]	GR50, 72 h (Doxorubicin) [µM]	GR50, 72 h (AZD6738) [µM]	GR50, 72 h (Alpelisib/BYL719) [µM]	GR50, 72 h (Dasatinib) [µM]	GR50, 72 h [7] [µM]	GR50, 72 h (AZD7762) [µM]	GR50, 72 h (AZD5363) [µM]	GR50, 72 h (Buparlisib/NVP-BKM120) [µM]	GR50, 72 h (Vorinostat) [µM]	GR50, 72 h (Olaparib/AZD2281) [µM]	GR50, 72 h (AZD2014) [µM]	GR50, 72 h [8] [µM]
HCC1569	0.0105	4.54	0.00634	> 1	> 3.16	0.394	> 10	> 10	> 10	> 10	0.0109	0.0107	0.0164	4.75	0.0283	0.00923	> 10	3.28	0.11	> 10	> 10	> 10	> 10	0.0255	3.49	5.28	0.0769	> 10	0.0361	0.358	0.908	3.31	> 10	–	–
PDX1206	–	3.6	0.313	–	–	–	> 10	> 10	–	–	0.00176	–	–	> 10	0.0255	0.0192	1.18	–	0.0514	> 10	1.86	–	–	–	4.6	–	–	–	–	0.457	–	–	–	< 0.001	0.00134
MDAMB175VII	0.0022	–	0.0486	0.00195	0.00212	0.22	0.255	2.47	> 10	1.34	0.00153	0.00398	0.0118	3.1	0.0271	0.00586	0.387	0.0646	0.0523	> 10	0.0785	4.54	7.74	0.00311	8.53	0.154	0.0162	> 10	0.0769	0.0495	0.102	0.546	9.32	< 0.001	< 0.001
HCC1954	0.0097	6.63	1.58	0.0167	> 3.16	1.43	2.94	> 10	> 10	> 10	< 0.001	0.0103	0.0126	5.9	0.0995	0.102	–	2.12	0.128	> 10	> 10	4.08	> 10	0.00718	5.43	1.23	1.86	> 10	0.127	3.06	0.523	1.43	> 10	0.0484	< 0.001
ZR7530	0.0216	6.17	1.91	0.0361	0.0889	2.4	> 10	> 10	> 10	5.13	0.152	0.00303	0.0163	1.64	0.0259	0.0237	1.48	0.533	0.192	> 10	–	7.57	–	0.0148	> 10	0.246	0.372	> 10	1.12	0.192	0.534	0.844	> 10	0.00146	–
MDAMB436	0.0412	4.65	0.175	> 1	> 3.16	> 10	> 10	> 10	> 10	4.75	1.02	0.00391	0.0143	4.3	0.135	0.00965	8.65	> 10	0.159	0.828	> 10	3.61	6.5	0.00761	9.07	> 10	> 10	> 10	0.04	> 10	1.18	2.68	1.53	> 10	–
MGH312	0.00596	5.42	1.27	> 1	> 3.16	0.037	> 10	> 10	0.155	4.84	0.00785	0.00379	0.0108	4.45	0.00839	0.00657	0.511	0.133	0.0997	> 10	0.0356	3.88	6.89	0.00621	–	6.6	0.00371	> 10	0.202	< 0.001	0.347	0.799	> 10	< 0.001	< 0.001
